This note sets out measurements from patent publication US20060074243A1, “Hydroxamic acid and amide compounds and their use as protease inhibitors” (Pharmacia Corporation, priority 2002, published 2006).

Assay [1] deals with T1, Human recombinant MMP-2 (Homo sapiens, UniProt P08253).
T1 construct: made in house; host or cells: MMP-2-transfected p2AHT2 cells
T1 sequence (P08253 110-660): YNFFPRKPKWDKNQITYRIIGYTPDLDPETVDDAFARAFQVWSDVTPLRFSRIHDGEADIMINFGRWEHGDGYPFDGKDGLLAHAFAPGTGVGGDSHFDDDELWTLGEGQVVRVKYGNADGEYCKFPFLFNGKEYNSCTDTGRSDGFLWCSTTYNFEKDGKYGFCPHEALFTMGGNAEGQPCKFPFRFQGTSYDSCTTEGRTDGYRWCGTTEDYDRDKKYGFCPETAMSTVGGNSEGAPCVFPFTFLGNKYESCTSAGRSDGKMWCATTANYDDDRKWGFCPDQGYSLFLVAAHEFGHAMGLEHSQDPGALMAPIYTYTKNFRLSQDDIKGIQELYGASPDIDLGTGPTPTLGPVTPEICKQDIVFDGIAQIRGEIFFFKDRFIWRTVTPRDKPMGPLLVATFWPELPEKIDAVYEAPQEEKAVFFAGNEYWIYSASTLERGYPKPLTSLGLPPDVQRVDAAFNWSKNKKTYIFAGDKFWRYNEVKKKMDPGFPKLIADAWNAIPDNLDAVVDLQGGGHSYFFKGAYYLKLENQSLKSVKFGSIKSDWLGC
As to the kind of experiment: In vitro MMP inhibition analysis (fluorogenic peptide substrate cleavage), Ki. Format: biochemical. The following applies: Table 2. In short, it runs like this:
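Human recombinant MMP-2 from transfected p2AHT2 cells was activated with APMA or trypsin and incubated 1 h at room temperature with compounds and 4 μM MCA-RPLGL(Dpa)ARER-NH2. Buffer was pH 7.5 Tris/NaCl/CaCl2, and fluorescence was read at ex 330/em 420 nm. Ki was fitted by Morrison's equation without substrate correction.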

The target of assay [2] is T2, Human recombinant MMP-14 (Homo sapiens, UniProt P50281).
T2 construct: The catalytic domain enzyme was expressed in E. coli inclusion bodies, solubilized in urea; made in house
Described as above. The format is biochemical. The following applies: Table 2. In short, it runs like this: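 Refolded catalytic domain of MMP-14 expressed in E. coli, activated with APMA or trypsin, incubated 1 h at room temperature with 4 μM MCA-peptide substrate in Tris buffer pH 7.5 with CaCl2. Cleavage rate followed by fluorescence (ex 330/em 420 nm). Ki from Morrison-equation fit; substrate at or below Km, so no substrate correction.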

As a reminder, the Ki is a dissociation constant, usually derived from enzyme kinetics or from competition with a known ligand. Take `CC[C@@H](C)NC(=O)c1ccc(-c2ccc(S(=O)(=O)C3(C(=O)NO)CCOCC3)cc2)nc1` [Example 207]: the figures for the inhibition constant (Ki) in assay [1] and in assay [2] were 4.99 nM and > 10000 nM, respectively.
Consider `O=C(CCc1nccs1)c1ccc(-c2ccc(S(=O)(=O)C3(C(=O)NO)CCOCC3)cc2)cc1` [Example 211], for which the results for the Ki in assay [1] and in assay [2] were 0.246 nM and 773 nM, respectively.
The matching figures for `CC(C)COc1cnc(-c2ccc(S(=O)(=O)C3(C(=O)NO)CCOCC3)cc2)cn1` [Example 170]: 0.09 nM and 234 nM.
With `O=C(NO)C1(S(=O)(=O)c2ccc(-c3cnc(CCCC(F)(F)F)cn3)cc2)CCN(C2CC2)CC1` [Example 218], the Ki in assay [1] is 1.93 nM; in assay [2], > 10000 nM.
As for `CCCCc1ccc(-c2ccc(S(=O)(=O)C3(C(=O)NO)CCOCC3)cc2)nc1` [Example 89], the inhibition constant Ki in assay [1] came out at 0.0488 nM; in assay [2], 139 nM.
In the case of `CC(C)CCc1cnc(-c2ccc(S(=O)(=O)C3(C(=O)NO)CCOCC3)cc2)cn1` [Example 169], the figures for the Ki in assay [1] and in assay [2] were 1.09 nM and 2520 nM, respectively.
As to `O=C(NO)C1(S(=O)(=O)c2ccc(-c3cnc4ccccc4n3)cc2)CCOCC1` [Example 194], the inhibitory constant (Ki) in assay [1] was 176 nM; in assay [2], > 10000 nM.
As for `O=C(NO)C1(S(=O)(=O)c2ccc(-c3nc4ccccc4s3)cc2)CCOCC1` [Example 195], the results for the inhibition constant Ki in assay [1] and in assay [2] were 5.74 nM and 1790 nM, respectively.
For the compound `CCCCOc1ccc(-c2ccc(S(=O)(=O)C3(C(=O)NO)CCOCC3)cc2)cc1` [Example 77], the inhibitory constant (Ki) in assay [1] came out at 0.18 nM; in assay [2], 174 nM.
For the compound `O=C(NO)C1(S(=O)(=O)c2ccc(-c3ccc(CCC(F)(F)F)cn3)cc2)CCOCC1` [Example 176], the results for the Ki in assay [1] and in assay [2] were 0.04 nM and 111 nM, respectively.
On to `O=C(NO)C1(S(=O)(=O)c2ccc(-c3ccc(CCCC(F)(F)F)cn3)cc2)CC=CC1` [Example 202], for which the Ki in assay [1] amounted to 0.32 nM; in assay [2], 1260 nM.
The matching figures for `CC(C)CNC(=O)c1cnc(-c2ccc(S(=O)(=O)C3(C(=O)NO)CCOCC3)cc2)cn1` [Example 186]: 2.33 nM and 4610 nM.
Turning to `CC(C)(C)NC(=O)c1ccc(-c2ccc(S(=O)(=O)C3(C(=O)NO)CCOCC3)cc2)nc1` [Example 205], the Ki in assay [1] was found to be 15.1 nM; in assay [2], 7630 nM.
For `CCCCOc1ccc(-c2ccc(S(=O)(=O)C3(C(=O)NO)CCOCC3)cc2)cc1C(F)(F)F` [Example 78], the Ki in assay [1] was determined as 55.5 nM; in assay [2], 9570 nM.
With `O=C(Cc1ccc(-c2ccc(S(=O)(=O)C3(C(=O)NO)CCOCC3)cc2)nc1)N1CCCCC1` [Example 212], the Ki was 34.7 nM in assay [1] and > 10000 nM in assay [2].
As to `COc1ccc(Cc2cnc(-c3ccc(S(=O)(=O)C4(C(=O)NO)CCOCC4)cc3)cn2)cc1` [Example 182], the Ki is 114 nM in assay [1] and > 10000 nM in assay [2].
As for `O=C(NCC1CC1)c1ccc2cc(-c3ccc(S(=O)(=O)C4(C(=O)NO)CCOCC4)cc3)ccc2c1` [Example 220], the inhibition constant (Ki) in assay [1] is 0.539 nM; in assay [2], > 2500 nM.
The corresponding values for `CCc1ccc(-c2ccc(S(=O)(=O)C3(C(=O)NO)CCOCC3)cc2)cc1` [Example 79] are 0.184 nM and 27.4 nM.
`COCCC(C(=O)NO)S(=O)(=O)c1ccc(-c2ccc(CCC(F)(F)C(F)(F)F)cc2)cc1` (stereo not shown) [Example 177]: the Ki in assay [1] stood at 1.57 nM; in assay [2], 5860 nM.
Take `CC(C)N(C(=O)N1CCC(C(=O)NO)(S(=O)(=O)c2ccc(-c3ccc(CCC(F)(F)C(F)(F)F)cc3)cc2)CC1)C(C)C` [Example 174]: the values for the Ki in assay [1] and in assay [2] were 1.24 nM and 1180 nM, respectively.
Regarding `O=C(NO)C1(S(=O)(=O)c2ccc(-c3cnc(OCC4CCC4)cn3)cc2)CCOCC1` [Example 178], the Ki came to 0.1 nM in assay [1] and 326 nM in assay [2].
The corresponding values for `O=C(NO)C1(S(=O)(=O)c2ccc(-c3cnc(CCC(F)(F)F)cn3)cc2)CCN(C2CC2)CC1` [Example 215] are 1.15 nM and 5070 nM.
With `O=C(NO)C1(S(=O)(=O)c2ccc(-c3ccc(C(F)(F)F)cn3)cc2)CCOCC1` [Example 82], the Ki in assay [1] was determined as 0.2 nM; in assay [2], 65.4 nM.
Take `O=C(NO)C1(S(=O)(=O)c2ccc(-c3cnc(-n4cccc4)cn3)cc2)CCOCC1` [Example 94]: the inhibition constant (Ki) in assay [1] came to 1.09 nM; in assay [2], 2940 nM.
For the compound `CCCCNC(=O)c1ccc(-c2ccc(S(=O)(=O)C3(C(=O)NO)CCOCC3)cc2)nc1` [Example 203], the Ki in assay [1] came out at 1.77 nM; in assay [2], 7920 nM.
The matching figures for `CCC(C)COc1ccc(-c2ccc(S(=O)(=O)C3(C(=O)NO)CCOCC3)cc2)cc1C(F)(F)F` (stereo not shown) [Example 92]: 58.1 nM and 7410 nM.
On to `O=C(NO)C1(S(=O)(=O)c2ccc(-c3ccc(F)c(C(F)(F)F)c3)cc2)CCOCC1` [Example 84], for which the results for the inhibitory constant (Ki) in assay [1] and in assay [2] were 10.1 nM and 989 nM, respectively.
Regarding `C#CCN1CCC(C(=O)NO)(S(=O)(=O)c2ccc(-c3ccc(CCC(F)(F)C(F)(F)F)cn3)cc2)CC1` [Example 199], the Ki in assay [1] was found to be 0.085 nM; in assay [2], 586 nM.
The corresponding values for `CCN1CCC(C(=O)NO)(S(=O)(=O)c2ccc(-c3cnc(CCC(F)(F)F)cn3)cc2)CC1` [Example 213] are 3.57 nM and > 10000 nM.
Consider `COCCO[C@H]1CC[C@](C(=O)NO)(S(=O)(=O)c2ccc(-c3cnc(CCC(F)(F)C(F)(F)F)cn3)cc2)CC1` [Example 187], for which the figures for the Ki in assay [1] and in assay [2] were 0.32 nM and 625 nM, respectively.
The corresponding values for `CCNc1cnc(-c2ccc(S(=O)(=O)C3(C(=O)NO)CCOCC3)cc2)cn1` [Example 93] are 4.16 nM and 4450 nM.
The matching figures for `O=C(NO)C1(S(=O)(=O)c2ccc(-c3cnc(OCCC4CC4)cn3)cc2)CCOCC1` [Example 172]: 0.07 nM and 222 nM.
For the compound `O=C(NCC1CC1)c1cnc(-c2ccc(S(=O)(=O)C3(C(=O)NO)CCOCC3)cc2)cn1` [Example 191], the inhibition constant (Ki) in assay [1] was 0.75 nM; in assay [2] it was 930 nM.
With `Cc1nc(CCc2ccc(-c3ccc(S(=O)(=O)C4(C(=O)NO)CCOCC4)cc3)cc2)no1` [Example 219], the values for the inhibition constant Ki in assay [1] and in assay [2] were 0.588 nM and 1760 nM, respectively.
The corresponding values for `CCCCNc1cnc(-c2ccc(S(=O)(=O)C3(C(=O)NO)CCOCC3)cc2)cn1` [Example 83] are 7.44 nM and 6360 nM.
As for `O=C(NO)C1(S(=O)(=O)c2ccc(-c3ccc(OCC(F)(F)C(F)F)c(C(F)(F)F)c3)cc2)CCOCC1` [Example 85], the inhibition constant (Ki) in assay [1] was 33.4 nM; in assay [2], 2800 nM.
With `O=C(NO)C1(S(=O)(=O)c2ccc(-c3ccc(C(F)(F)F)cc3F)cc2)CCOCC1` [Example 96], the Ki in assay [1] turned out to be 0.668 nM; in assay [2] it was 224 nM.
On to `CN(C)C(=O)N1CCC(C(=O)NO)(S(=O)(=O)c2ccc(-c3ccc(CCC(F)(F)C(F)(F)F)cc3)cc2)CC1` [Example 173], for which the inhibition constant Ki in assay [1] came out at 0.35 nM; in assay [2], 441 nM.
As for `CC(C)NC(=O)c1ccc(-c2ccc(S(=O)(=O)C3(C(=O)NO)CCOCC3)cc2)nc1` [Example 204], the Ki in assay [1] is 4.32 nM; in assay [2] it was 6370 nM.
On to `CCCc1ccc(-c2ccc(S(=O)(=O)C3(C(=O)NO)CCOCC3)cc2)cc1` [Example 87], for which the Ki came to 0.158 nM in assay [1] and 62.3 nM in assay [2].
Regarding `O=C(NO)C1(S(=O)(=O)c2ccc(-c3ccc(CCC(F)(F)C(F)(F)F)cc3)cc2)CCS(=O)(=O)CC1` [Example 167], the inhibition constant (Ki) in assay [1] came out at 1.9 nM; in assay [2] it was 3590 nM.
